Values after ≈ are worked out from the molar mass of the structure shown. Active and inactive are the calls of the source. The calls are words filed in the database; no cut-off is given here.
How the values were obtained:
Assay type in all cases: functional
Rattus norvegicus [1] = assay: Antiinflammatory activity in Wistar albino rat assessed as inhibition of carrageenan-induced paw edema at 40 mg/kg, po administered 1 hr prior to carrageenan challenge measured 1 hr post carrageenan challenge relative to control
Rattus norvegicus [2] = assay: Antiinflammatory activity in Wistar albino rat assessed as inhibition of carrageenan-induced paw edema at 40 mg/kg, po administered 1 hr prior to carrageenan challenge measured 2 hrs post carrageenan challenge relative to control
Rattus norvegicus [3] = assay: Antiinflammatory activity in Wistar albino rat assessed as inhibition of carrageenan-induced paw edema at 40 mg/kg, po administered 1 hr prior to carrageenan challenge measured 4 hrs post carrageenan challenge relative to control
Escherichia coli = assay: Antibacterial activity against Escherichia coli ATCC 25922 after 2 days by microdilution broth method; conditions: ATCC 25922, 48 h
Aspergillus niger = assay: Antifungal activity against Aspergillus niger ATCC 9029 after 2 days by microdilution broth method; conditions: ATCC 9029, 48 h
Candida albicans = assay: Antifungal activity against Candida albicans ATCC 10231 after 2 days by microdilution broth method; conditions: ATCC 10231, 48 h
Staphylococcus aureus = assay: Antibacterial activity against Staphylococcus aureus ATCC 25923 after 2 days by microdilution broth method; conditions: ATCC 25923, 48 h

Structure (SMILES)	inhibition in vivo at 40 mg/kg (Rattus norvegicus [1])	inhibition in vivo at 40 mg/kg (Rattus norvegicus [2])	inhibition in vivo at 40 mg/kg (Rattus norvegicus [3])	MIC (Escherichia coli)	MIC (Aspergillus niger)	MIC (Candida albicans)	MIC (Staphylococcus aureus)	inhibition (Rattus norvegicus [1])	inhibition (Rattus norvegicus [2])	inhibition (Rattus norvegicus [3])
Cc1nc(-c2ccccc2)sc1C1SCC(=O)N1c1ccc(F)c(Cl)c1 (configuration not stated)	55.9%	20.9%	28.6%	61.7 µM (≈ 25 µg/mL)	123 µM (≈ 50 µg/mL)	123 µM (≈ 50 µg/mL)	61.7 µM (≈ 25 µg/mL)			
Cc1nc(-c2ccccc2)sc1C1SCC(=O)N1c1ccc(F)cc1 (configuration not stated)	63.9%	63.4%	85.3%	33.7 µM (≈ 12.5 µg/mL)	33.7 µM (≈ 12.5 µg/mL)	33.7 µM (≈ 12.5 µg/mL)	67.5 µM (≈ 25 µg/mL)			
COc1ccc(N2C(=O)CSC2c2sc(Cc3ccc(Cl)cc3)nc2C)cc1 (configuration not stated)	20.9%	28.6%	55.9%	58 µM (≈ 25 µg/mL)	14.5 µM (≈ 6.25 µg/mL)	14.5 µM (≈ 6.25 µg/mL)	58 µM (≈ 25 µg/mL)			
Cc1ccc(N2C(=O)CSC2c2sc(Cc3ccc(Cl)cc3)nc2C)cc1 (configuration not stated)	59.9%	61.4%	81.3%	60.2 µM (≈ 25 µg/mL)	15.1 µM (≈ 6.25 µg/mL)	30.1 µM (≈ 12.5 µg/mL)	60.2 µM (≈ 25 µg/mL)			
Cc1nc(-c2ccccc2)sc1C1SCC(=O)N1c1ccccc1 (configuration not stated)	44.4%	50.6%	63.7%	70.9 µM (≈ 25 µg/mL)	142 µM (≈ 50 µg/mL)	142 µM (≈ 50 µg/mL)	70.9 µM (≈ 25 µg/mL)			
Cc1nc(-c2ccccc2)sc1C1SCC(=O)N1c1ccc(Cl)cc1 (configuration not stated)	54.8%	59.1%	80.8%	64.6 µM (≈ 25 µg/mL)	129 µM (≈ 50 µg/mL)	129 µM (≈ 50 µg/mL)	129 µM (≈ 50 µg/mL)			
Cc1ccc(N2C(=O)CSC2c2sc(-c3ccc(Cl)cc3)nc2C)cc1 (configuration not stated)	38.3%	37.6%	63.9%	31.2 µM (≈ 12.5 µg/mL)	31.2 µM (≈ 12.5 µg/mL)	15.6 µM (≈ 6.25 µg/mL)	31.2 µM (≈ 12.5 µg/mL)			
Cc1nc(-c2ccc(Cl)cc2)sc1C1SCC(=O)N1c1ccccc1 (configuration not stated)				32.3 µM (≈ 12.5 µg/mL)	129 µM (≈ 50 µg/mL)	129 µM (≈ 50 µg/mL)	32.3 µM (≈ 12.5 µg/mL)			
Cc1nc(Cc2ccc(Cl)cc2)sc1C1SCC(=O)N1c1ccc(Cl)cc1 (configuration not stated)	48.9%	40.1%	53.9%	57.4 µM (≈ 25 µg/mL)	28.7 µM (≈ 12.5 µg/mL)	28.7 µM (≈ 12.5 µg/mL)	28.7 µM (≈ 12.5 µg/mL)			
O=C(O)c1cn(C2CC2)c2cc(N3CCNCC3)c(F)cc2c1=O [CIPROFLOXACIN]				2.35 µM (≈ 0.779 µg/mL)			4.7 µM (≈ 1.56 µg/mL)			
COc1ccc(N2C(=O)CSC2c2sc(-c3ccccc3)nc2C)cc1 (configuration not stated)	52.3%	48.1%	67.1%	65.5 µM (≈ 25.1 µg/mL)	32.8 µM (≈ 12.5 µg/mL)	32.8 µM (≈ 12.5 µg/mL)	65.5 µM (≈ 25.1 µg/mL)			
Cc1nc(Cc2ccc(Cl)cc2)sc1C1SCC(=O)N1c1ccccc1 (configuration not stated)				67.8 µM (≈ 27.2 µg/mL)	33.9 µM (≈ 13.6 µg/mL)	33.9 µM (≈ 13.6 µg/mL)	67.8 µM (≈ 27.2 µg/mL)	inactive	inactive	inactive
Cc1ccc(N2C(=O)CSC2c2sc(-c3ccccc3)nc2C)cc1 (configuration not stated)	58.1%	60.1%	80.6%	60.4 µM (≈ 22.1 µg/mL)	30.2 µM (≈ 11.1 µg/mL)	30.2 µM (≈ 11.1 µg/mL)	121 µM (≈ 44.3 µg/mL)			
COc1ccc(N2C(=O)CSC2c2sc(-c3ccc(Cl)cc3)nc2C)cc1 (configuration not stated)	54%	80.7%	59.1%	30 µM (≈ 12.5 µg/mL)	30 µM (≈ 12.5 µg/mL)	30 µM (≈ 12.5 µg/mL)	30 µM (≈ 12.5 µg/mL)			
Cc1nc(Cc2ccc(Cl)cc2)sc1C1SCC(=O)N1c1ccc(F)cc1 (configuration not stated)				59.7 µM (≈ 25 µg/mL)	14.9 µM (≈ 6.25 µg/mL)	14.9 µM (≈ 6.25 µg/mL)	59.7 µM (≈ 25 µg/mL)			
OC(Cn1cncn1)(Cn1cncn1)c1ccc(F)cc1F [FLUCONAZOLE]					5.09 µM (≈ 1.56 µg/mL)	2.55 µM (≈ 0.781 µg/mL)				
Cc1nc(-c2ccc(Cl)cc2)sc1C1SCC(=O)N1c1ccc(Cl)cc1 (configuration not stated)	69.3%	45.7%	43.1%	29.7 µM (≈ 12.5 µg/mL)	119 µM (≈ 50 µg/mL)	119 µM (≈ 50 µg/mL)	59.3 µM (≈ 25 µg/mL)			
Cc1nc(Cc2ccc(Cl)cc2)sc1C1SCC(=O)N1c1ccc(F)c(Cl)c1 (configuration not stated)	40.7%	45.1%	68.9%	55.1 µM (≈ 25 µg/mL)	27.6 µM (≈ 12.5 µg/mL)	27.6 µM (≈ 12.5 µg/mL)	55.1 µM (≈ 25 µg/mL)			
COc1ccc2c(c1)c(CC(=O)O)c(C)n2C(=O)c1ccc(Cl)cc1 [INDOMETHACIN]	70.2%	78.3%	87.3%							
Cc1nc(-c2ccc(Cl)cc2)sc1C1SCC(=O)N1c1ccc(F)c(Cl)c1 (configuration not stated)	53.4%	45.1%	65.1%	56.9 µM (≈ 25 µg/mL)	114 µM (≈ 50 µg/mL)	114 µM (≈ 50 µg/mL)	56.9 µM (≈ 25 µg/mL)			
Cc1nc(-c2ccc(Cl)cc2)sc1C1SCC(=O)N1c1ccc(F)cc1 (configuration not stated)	63.4%	63.9%	67.6%	15.4 µM (≈ 6.25 µg/mL)	61.7 µM (≈ 25 µg/mL)	30.9 µM (≈ 12.5 µg/mL)	30.9 µM (≈ 12.5 µg/mL)			

From ChEMBL document CHEMBL2146439, “Synthesis and pharmacological evaluation of a novel series of 3-aryl-2-(2-substituted-4-methylthiazole-5-yl)thiazolidin-4-one as possible anti-inflammatory and antimicrobial agents” (2012)
